What was measured:
Candida krusei E28 = test: In vitro antifungal activity, MIC by microdilution (NCCLS M27-A)
[1] = system: Staphylococcus aureus CCM 4516/08; test: Screen against bacteria, MIC/IC80; assay type: cell-based; conditions: SA
[2] = system: Klebsiella pneumoniae J 14368/08 ESBL-positive; test: Screen against bacteria, MIC/IC80; assay type: cell-based; conditions: KP-E
[3] = system: Candida parapsilosis ATCC 22019; test: In vitro antifungal activity, MIC by microdilution (NCCLS M27-A); conditions: CP
[4] = system: Klebsiella pneumoniae D 11750/08; test: Screen against bacteria, MIC/IC80; assay type: cell-based; conditions: KP
Candida glabrata 20/l = test: In vitro antifungal activity, MIC by microdilution (NCCLS M27-A); conditions: CG
[5] = system: Candida albicans ATCC 90028; test: as above
Candida krusei ATCC 6258 = test: as above
Absidia corymbifera 272 = test: as above; conditions: AC
[6] = system: Enterococcus sp. J 14365/08; test: Screen against bacteria, MIC/IC80; assay type: cell-based; conditions: EF
[7] = system: Candida albicans ATCC 44859; test: In vitro antifungal activity, MIC by microdilution (NCCLS M27-A)
[8] = system: Staphylococcus aureus H 5996/08 Methiciline-resistant; test: Screen against bacteria, MIC/IC80; assay type: cell-based; conditions: MRSA
[9] = system: Trichophyton mentagrophytes 445; test: In vitro antifungal activity, MIC by microdilution (NCCLS M27-A); conditions: TM
[10] = system: Staphylococcus epidermidis H 6966/08; test: Screen against bacteria, MIC/IC80; assay type: cell-based; conditions: SE
[11] = system: Pseudomonas aeruginosa CCM 1961; test: Screen against bacteria, MIC/IC80; assay type: cell-based; conditions: PA
Candida tropicalis 156 = test: In vitro antifungal activity, MIC by microdilution (NCCLS M27-A); conditions: CT
[12] = system: Aspergillus fumigatus 231; test: as above; conditions: AF
Experimental: In vitro antifungal activities of the compounds were evaluated on the collection of fungal strains deposited at the Department of Biological and Medical Sciences, Faculty of Pharmacy, Charles University, Czech Republic. All the isolates were maintained on Sabouraud dextrose agar prior to being tested.
Minimum inhibitory concentrations (MICs) were determined by the microdilution format of the NCCLS M27-A guidelines. […] RPMI 1640 (Sevapharma, Prague) medium supplemented with L-glutamine and buffered with 0.165 M morpholinepropanesulfonic acid to pH 7.0 was used as the test medium. The wells of the microdilution tray contained 100 μl of the RPMI 1640 medium with 2-fold serial dilutions of the compounds (1000 to 0.24 μmol/l for the new compounds) and 100 μl of inoculum suspension. Fungal inoculum in RPMI 1640 was prepared to give a final concentration of 5×103±0.2 cfu·ml-1. The trays were incubated at 35° C. and MICs were read visually for filamentous fungi and photometrically for yeasts as an optical density (OD) at 540 nm after 24 h and 48 h. The MICs were defined as 80% inhibition of the growth of control. MICs were determined twice and in duplicate. The deviations from the usually obtained were no higher than the nearest concentration value up and down the dilution scale.

Escherichia coli CCM4517 = test: Screen against bacteria, MIC/IC80; assay type: cell-based; conditions: EC
[13] = system: Candida lusitaniae 2446/l; test: In vitro antifungal activity, MIC by microdilution (NCCLS M27-A); conditions: CL

Measured: MIC/IC80

COC(=O)C(OC(=O)C[n+]1ccn(C)c1)c1ccccc1 (centres unmarked) [KG89, RS-3-methyl-1-[1-(methoxycarbonyl)-1-phenylmethoxycarbonylmethyl]imidazolium bromide]
>1000 µmol/L: Candida krusei E28; CK2, 24 h | Candida krusei E28; CK2, 48 h | [1]; 24 h | [1]; 48 h | [2]; 24 h | [2]; 48 h | [3]; 24 h | [3]; 48 h | [4]; 24 h | [4]; 48 h | Candida glabrata 20/l; 24 h | Candida glabrata 20/l; 48 h | [5]; CA2, 24 h | [5]; CA2, 48 h | Candida krusei ATCC 6258; CK1, 24 h | Candida krusei ATCC 6258; CK1, 48 h | Absidia corymbifera 272; 24 h | Absidia corymbifera 272; 48 h | [6]; 24 h | [6]; 48 h | [7]; CA1, 24 h | [7]; CA1, 48 h | [8]; 24 h | [8]; 48 h | [9]; 72 h | [9]; 120 h | [10]; 24 h | [10]; 48 h | [11]; 24 h | [11]; 48 h | Candida tropicalis 156; 24 h | Candida tropicalis 156; 48 h | [12]; 24 h | [12]; 48 h | Escherichia coli CCM4517; 24 h | Escherichia coli CCM4517; 48 h | [13]; 24 h | [13]; 48 h

CCCCCCCCOS(=O)(=O)[O-].COC(=O)[C@@H](OC(=O)Cn1cc[n+](C)c1)c1ccccc1 [KG88, S-3-methyl-1-[1-(methoxycarbonyl)-1-phenylmethoxycarbonylmethyl]imidazolium octyl sulphate]
>1000 µmol/L: Candida krusei E28; CK2, 24 h | Candida krusei E28; CK2, 48 h | [1]; 24 h | [1]; 48 h | [2]; 24 h | [2]; 48 h | [3]; 24 h | [3]; 48 h | [4]; 24 h | [4]; 48 h | Candida glabrata 20/l; 24 h | Candida glabrata 20/l; 48 h | [5]; CA2, 24 h | [5]; CA2, 48 h | Candida krusei ATCC 6258; CK1, 24 h | Candida krusei ATCC 6258; CK1, 48 h | Absidia corymbifera 272; 24 h | Absidia corymbifera 272; 48 h | [6]; 24 h | [6]; 48 h | [7]; CA1, 24 h | [7]; CA1, 48 h | [8]; 24 h | [8]; 48 h | [9]; 72 h | [9]; 120 h | [10]; 24 h | [10]; 48 h | [11]; 24 h | [11]; 48 h | Candida tropicalis 156; 24 h | Candida tropicalis 156; 48 h | [12]; 24 h | [12]; 48 h | Escherichia coli CCM4517; 24 h | Escherichia coli CCM4517; 48 h | [13]; 24 h | [13]; 48 h

COC(=O)[C@@H](OC(=O)C[n+]1ccn(C)c1)c1ccccc1 [KG91, S-3-methyl-1-[1-(methoxycarbonyl)-1-phenylmethoxycarbonylmethyl]imidazolium bromide]
>1000 µmol/L: Candida krusei E28; CK2, 24 h | Candida krusei E28; CK2, 48 h | [1]; 24 h | [1]; 48 h | [2]; 24 h | [2]; 48 h | [3]; 24 h | [3]; 48 h | [4]; 24 h | [4]; 48 h | Candida glabrata 20/l; 24 h | Candida glabrata 20/l; 48 h | [5]; CA2, 24 h | [5]; CA2, 48 h | Candida krusei ATCC 6258; CK1, 24 h | Candida krusei ATCC 6258; CK1, 48 h | Absidia corymbifera 272; 24 h | Absidia corymbifera 272; 48 h | [6]; 24 h | [6]; 48 h | [7]; CA1, 24 h | [7]; CA1, 48 h | [8]; 24 h | [8]; 48 h | [9]; 72 h | [9]; 120 h | [10]; 24 h | [10]; 48 h | [11]; 24 h | [11]; 48 h | Candida tropicalis 156; 24 h | Candida tropicalis 156; 48 h | [12]; 24 h | [12]; 48 h | Escherichia coli CCM4517; 24 h | Escherichia coli CCM4517; 48 h | [13]; 24 h | [13]; 48 h

R-3-methyl-1-[1-(ethoxyethoxycarbonyl)-1-phenylmethoxycarbonylmethyl]imidazolium octyl sulphate [KG301]
>1000 µmol/L: Candida krusei E28; CK2, 24 h | Candida krusei E28; CK2, 48 h | [1]; 24 h | [1]; 48 h | [2]; 24 h | [2]; 48 h | [3]; 24 h | [3]; 48 h | [4]; 24 h | [4]; 48 h | Candida glabrata 20/l; 24 h | Candida glabrata 20/l; 48 h | [5]; CA2, 24 h | [5]; CA2, 48 h | Candida krusei ATCC 6258; CK1, 24 h | Candida krusei ATCC 6258; CK1, 48 h | Absidia corymbifera 272; 24 h | Absidia corymbifera 272; 48 h | [6]; 24 h | [6]; 48 h | [7]; CA1, 24 h | [7]; CA1, 48 h | [8]; 24 h | [8]; 48 h | [9]; 72 h | [9]; 120 h | [10]; 24 h | [10]; 48 h | [11]; 24 h | [11]; 48 h | Candida tropicalis 156; 24 h | Candida tropicalis 156; 48 h | [12]; 24 h | [12]; 48 h | Escherichia coli CCM4517; 24 h | Escherichia coli CCM4517; 48 h | [13]; 24 h | [13]; 48 h
